Source: US7579356B2, “Thia-tetraazaacenaphthylene kinase inhibitors” (Janssen Pharmaceutica NV, priority 2005, dated 2009)

Assays:
HCT-116 colon carcinoma = assay: Cell Proliferation Inhibition Assay, HCT-116 (14C-thymidine); format: cell-based; details: Homo sapiens, HCT-116 cell proliferation
Text: (§1) Cell Proliferation Inhibition Assay
(§2) The ability of a test compound to inhibit unregulated cell proliferation may be determined by measuring incorporation of ^14C-labelled thymidine into newly synthesized DNA within cell lines derived from carcinomas originating from several tissues. Accordingly, the effect of a test compound on proliferation of cells with a variety of phenotypes may be determined.
(§3) Carcinoma cell lines used include the HeLa cervical adenocarcinoma from the American Type Culture Collection (ATCC Cat. #CCL2), A375 malignant melanoma (ATCC Cat. #CRL-1619), HCT-116 colon carcinoma (ATCC Cat. #CCL-247), SKBR3 breast carcinoma (ATCC Cat. #HTB-30) and BT474 breast carcinoma (ATCC Cat. #HTB-20).
(§4) The carcinoma cells were trypsinized and counted. The cells (3000-8000 count) were added to each well of a 96-well CytoStar tissue culture treated scintillating microplate (Amersham #RPNQ0160) in complete medium (100 μL) and the plate was then incubated in complete medium for 24 hrs at 37° C. in an inert atmosphere containing 5% CO2.
(§5) Test compound (1 μL) in 100% DMSO was added to the plate test-wells with DMSO only added to control-wells. The plate was incubated in complete medium for a second 24 hr period at 37° C. in an atmosphere containing 5% CO2.
(§6) An aliquot of a solution of Methyl ^14C-thymidine (56 mC/mmol) (NEN #NEC568 or AMersham #CFA532) and complete medium (20 uL to provide 0.2 μCl/well) was then added to each well and the plate was incubated for a third 24 hr period at 37° C. in an atmosphere containing 5% CO2.
(§7) The plate contents were then discarded, the plate washed twice with PBS (200 μL) and then PBS (200 μL) was added to each well. The plate was sealed and the degree of methyl ^14C-thymidine incorporation was quantified on a Packard Top Count.
(§8) Cell proliferation of the Hela cell line was measured using the ATP-Lite method as described in the ATP Lite Kit (Perkin-Elmer Kit Number 6106941) or the C^14 method as described above. Cell proliferation of the other cell lines was measured using the C^14 method.

HER-2 = molecular target: T1, HER-2 (Homo sapiens, UniProt P04626); assay: HER-2 Kinase Assay; format: biochemical; details: value in parentheses
T1 construct: His6 with thrombin site (N); purchased Proqinase (Freiburg, Germany)
Outline: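 GST/HIS6-tagged HER-2 aa 679–1255 kinase with biotinylated polyGluTyr (1.5 ng/μL), 1 μM ATP plus γ-33P-ATP, Mg2+/Mn2+, DTT, Hepes pH 7.5; 1 h at 30 °C. Substrate phosphorylation captured on streptavidin scintillation plates after EDTA/PBS washes; values are % inhibition at 1 μM or IC50.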

A375 malignant melanoma = assay: Cell Proliferation Inhibition Assay, A375 (14C-thymidine); format: cell-based; details: Homo sapiens, A-375
Text: as §1, §2, §3, §4, §5, §6, §7, §8

Lyn kinase (human) = molecular target: T2, Lyn kinase (human) (Homo sapiens, UniProt P07948); assay: Lyn Kinase Assay; format: biochemical; details: test concentration of 2 μM
T2 construct: purchased Upstate Biotechnology, Lake Placid, N.Y
Outline: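 Radiometric filter-binding assay with recombinant human Lyn, poly(Glu,Tyr) substrate (0.1 mg/mL final), 5 μM ATP plus γ-33P-ATP in MOPS pH 7.5/Mg acetate buffer; 40 min at 30 °C, stopped with phosphoric acid, counted by scintillation. Reported as percent inhibition at 2 μM, with IC50 (μM) where determined.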

T1 sequence (P04626 679-1255): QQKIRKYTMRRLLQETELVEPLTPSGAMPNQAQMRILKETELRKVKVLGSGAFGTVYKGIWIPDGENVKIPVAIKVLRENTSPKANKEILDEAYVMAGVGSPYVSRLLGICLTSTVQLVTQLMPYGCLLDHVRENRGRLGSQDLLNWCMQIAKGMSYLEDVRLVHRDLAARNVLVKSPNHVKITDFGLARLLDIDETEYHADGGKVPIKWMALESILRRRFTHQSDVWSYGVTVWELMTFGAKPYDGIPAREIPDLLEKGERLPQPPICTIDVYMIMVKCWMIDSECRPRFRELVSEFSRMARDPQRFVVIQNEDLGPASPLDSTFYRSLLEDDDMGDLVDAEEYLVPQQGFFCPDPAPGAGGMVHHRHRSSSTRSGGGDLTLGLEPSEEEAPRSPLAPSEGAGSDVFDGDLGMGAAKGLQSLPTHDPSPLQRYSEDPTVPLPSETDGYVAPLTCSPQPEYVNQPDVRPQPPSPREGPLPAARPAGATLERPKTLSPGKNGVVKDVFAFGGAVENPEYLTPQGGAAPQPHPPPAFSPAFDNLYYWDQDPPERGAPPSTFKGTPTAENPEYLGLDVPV
T2 sequence (P07948 whole entry): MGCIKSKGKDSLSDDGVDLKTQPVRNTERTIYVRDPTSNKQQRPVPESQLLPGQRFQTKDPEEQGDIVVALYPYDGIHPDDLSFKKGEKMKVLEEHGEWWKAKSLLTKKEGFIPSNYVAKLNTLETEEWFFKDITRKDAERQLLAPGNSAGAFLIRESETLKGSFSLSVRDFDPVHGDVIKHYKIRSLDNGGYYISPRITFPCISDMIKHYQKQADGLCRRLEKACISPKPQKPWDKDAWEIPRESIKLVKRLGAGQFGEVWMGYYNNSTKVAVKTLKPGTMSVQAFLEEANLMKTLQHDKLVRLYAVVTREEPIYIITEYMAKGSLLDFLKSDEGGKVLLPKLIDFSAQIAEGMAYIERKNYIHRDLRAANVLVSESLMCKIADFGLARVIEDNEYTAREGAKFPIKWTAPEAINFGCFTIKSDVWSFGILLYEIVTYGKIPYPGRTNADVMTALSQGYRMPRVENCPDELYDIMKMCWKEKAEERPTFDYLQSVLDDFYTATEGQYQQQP

| IC50 (HCT-116 colon carcinoma) | IC50 (HER-2) | IC50 (A375 malignant melanoma) | inhibition at 2 µM (Lyn kinase (human)) | Structure (SMILES) |
| --- | --- | --- | --- | --- |
| 10 µM | 0.161 µM | 100 µM | 21% | O=C(Nc1ccc(CN2CCOCC2)cc1)c1sc2ncnc3c2c1NC(=O)N3c1ccc(Oc2ccc(F)cc2)cc1 [Cpd 110, 5-[4-(4-fluoro-phenoxy)-phenyl]-4-oxo-4,5-dihydro-3H-1-thia-3,5,6,8-tetraaza-acenaphthylene-2-carboxylic acid (4-morpholin-4-ylmethyl-phenyl)-amide] |
| 10 µM | 1.7 µM | 10 µM | -2% | Cc1ccc(N2C(=O)Nc3c(C(=O)NC4CCN(C)CC4)sc4ncnc2c34)cc1Br [Cpd 116, 5-(3-bromo-4-methyl-phenyl)-4-oxo-4,5-dihydro-3H-1-thia-3,5,6,8-tetraaza-acenaphthylene-2-carboxylic acid (1-methyl-piperidin-4-yl)-amide] |
| 100 µM | 13 µM | 100 µM | 12% | Cc1ccc(Br)cc1N1C(=O)Nc2c(C(=O)NC3CCN(C)CC3)sc3ncnc1c23 [Cpd 117, 5-(5-bromo-2-methyl-phenyl)-4-oxo-4,5-dihydro-3H-1-thia-3,5,6,8-tetraaza-acenaphthylene-2-carboxylic acid (1-methyl-piperidin-4-yl)-amide] |
| 10 µM | ~100 µM | 10 µM | 12% | CN1CCC(NC(=O)c2sc3ncnc4c3c2NC(=O)N4c2ccc(Oc3ccc(F)cc3)cc2)CC1 [Cpd 118, 5-[4-(4-fluoro-phenoxy)-phenyl]-4-oxo-4,5-dihydro-3H-1-thia-3,5,6,8-tetraaza-acenaphthylene-2-carboxylic acid (1-methyl-piperidin-4-yl)-amide] |
